Results published in patent US20250339817A1, “A PROCESS FOR THE NITRIC OXIDE ABATEMENT THROUGH BIOLOGICAL TREATMENTS” (FUNDACIÓ EURECAT, priority 2022, published 2025).

Experiments:
Assay type in all cases: physicochemical
[1] = Nitric oxide (NO) absorption with pure NAPs (batch tests); settings: pure NAP, first screening test, 1 hour, 25° C., initial NO 4500-5100 ppmv
Experimental: Batch tests with pure NAPs were performed in 120 mL glass amber vials with an initial concentration of NO between 4500 and 5100 ppmv and different amounts of NAPs (DES, SO, HTX, HNO and HEX). For this experiment each NAP was added to a vial containing NO. Each NAP was tested alone. The results were compared with respect to a blank containing deionized water instead of NAP. All experiments were carried out at a temperature of 25° C. and agitation of 100 rpm in an incubator, five replicates were made per point. Gas phase analysis (NO and NO2) was performed at the beginning of the experiment and at the end (1 hour).
NO and NO2 concentrations in the gas phase were measured by Fourier Transform Infrared Spectroscopy (FTIR) from an aliquot of 1 mL (PerkinElmer Inc., Spain). The NO removal efficiency in the tests was calculated from the difference in NO concentration from the beginning and end of each test. Nitrogen compounds and chemical oxygen demand (COD) were analyzed in liquid samples after centrifuged at 15,000 rpm and filtration (0.22 μm) to separate the NAP found in the sample. Nitrite and nitrate were measured using Hach Lange kits (LCK342 and LCK 339, respectively, Hach Lange, Germany). COD was measured using Hach Lange kits (LCK114 and LCK 214, respectively, Hach Lange, Germany).

[2] = Mass transfer gas-to-liquid tests in a two-phase system (CO2/NAP); settings: pure CO2 (without gas mixture), 1 h
Experimental: Mass transfer gas-to-liquid batch tests were performed to determine the mass transfer rate of CO2 in the presence of NAP. The initial samples were filled with CO2 to reach a peak transmittance area between 6200 and 7100 cm-1, then 10 mL of each NAP (HTX, HNO and HEX) was injected. […] CO2 in the gas phase were measured at the beginning and at the end of the test. All experiments were performed in 500 mL amber glass bottles previously prepared in a glove box to maintain an inert atmosphere and carried out per at least triplicate at a temperature of 25° C. and 100 rpm orbital shaking in an incubator.
(§1) NO and CO2 peak area in the gas phase were measured by Fourier Transform Infrared Spectroscopy (FTIR). In these experiments the peak area was analyzed and not the concentration. Therefore, the performance of the tests will be given in percent (%) area reduction, which is defined in Eq 1. Nitrogen compounds were analyzed in liquid samples after being centrifuged at 15,000 rpm and filtration (0.22 μm) to separate the NAP found in the sample. NO2^− and NO3^− were measured using Hach Lange kits (LCK342 and LCK 339, respectively, Hach Lange, Germany).
(§2) The initial area (Areainitial) is a quantitative measure of the transmittance at certain given wavelengths (NO=1730-1930 cm^−1; CO2=2230-2400 cm^−1) and correlates the presence of the compound in the sample at time=0 h. The final area (Areafinal) is a quantitative measure of the transmittance at the given wavelengths (NO=between 1730-1930 cm^−1; CO2=2230-2400 cm-1) and correlates with the presence of the compound in the sample at time=1 h.

[3] = Mass transfer gas-to-liquid batch tests in a two-phase system with a mixture of gases (CO2/NO/NAP), CO2; settings: 1 h
Experimental: (§3) Mass transfer gas-to-liquid batch tests with a mixture of gases with CO2 and NO were performed to determine the mass transfer rate and selectivity of these gases in the presence of NAP. The initial samples were filled with CO2 to reach a peak transmittance area between 6388 and 8018 cm^−1 and NO to reach a peak of transmittance area between 73 and 84 cm^−1, then 10 mL of each NAP (HTX, HNO and HEX) was injected. CO2 and NO in the gas phase were measured at the beginning and at the end of the test. All experiments were carried out per at least triplicate at a temperature of 25° C. and 100 rpm orbital shaking in an incubator. These tests had also a blank in which the NAP phase was replaced by phosphate buffer (pH=8).
as §1, §2

[4] = Mass transfer gas-to-liquid batch tests in a two-phase system with a mixture of gases (CO2/NO/NAP), NO; settings: 1 h
Experimental: as §3, §1, §2

[5] = Mass transfer gas-to-liquid batch tests in a three-phase system (CO2/NO/Aqueous/NAP), NO; parameters: concentration or dose not given beside the values; settings: phosphate buffer
Experimental: (§4) Mass transfer gas-to-liquid batch tests with a mixture of gases with CO2 and NO were performed to determine the mass transfer rate and selectivity of these gases in the presence of NAP and aqueous phase. The results were compared with respect to blank (water or phosphate buffer at pH 8 without NAP). The initial samples were filled with CO2 to reach a peak transmittance area between 8010 and 8940 cm^−1 and NO to reach a peak of transmittance area between 11 and 14 cm^−1, then 10 mL of each NAP (HTX, HNO and HEX) was injected. Tests were performed with a phosphate buffer at pH 8 at a 10% v/v ratio of NAP/aqueous phase. All experiments were performed in 500 mL amber glass bottles previously prepared in a glove box to maintain an inert atmosphere and carried out per at least triplicate at a temperature of 25° C. and 100 rpm orbital shaking in an incubator. CO2 and NO in the gas phase were measured at the beginning and at the end of the test. Also, the liquid phase was monitored for pH, nitrite (NO2^−) and nitrate (NO3^−) at the end of each test.
as §1, §2

[6] = Mass transfer gas-to-liquid batch tests in a three-phase system (CO2/NO/Aqueous/NAP), CO2; settings: gas mixture, phosphate buffer
Experimental: as §4, §1, §2

CCCCCCCCCCCCCCCC [HEX, n-hexadecane]
RE NO (NO removal efficiency) [1]: 29.2%
CO2 peak area reduction [2]: 11±3%
CO2 peak area reduction [3]: 15±2%
NO percent of area reduction [4]: 31±6%
NO percent of area reduction ([5]; with CO2): 28±3%
NO percent of area reduction ([5]; without CO2): 26±5%
CO2 peak area difference [6]: 8±2%

CC(CC(C)(C)C)CC(C)(C)CC(C)(C)C (centres unmarked) [HNO, 2,2,4,4,6,8,8-heptamethylnonane]
CO2 peak area reduction [2]: 18±3%
CO2 peak area reduction [3]: 13±0.3%
NO percent of area reduction [4]: 21±4%
NO percent of area reduction ([5]; with CO2): 54±4%
NO percent of area reduction ([5]; without CO2): 32±4%
CO2 peak area difference [6]: 3±7%

C[SiH](O[Si](C)(C)C)O[Si](C)(C)C [HTX, 1,1,1,3,5,5,5-heptamethyl-trisiloxane]
RE NO (NO removal efficiency) [1]: 49.2%
CO2 peak area reduction [2]: 99±0.2%
CO2 peak area reduction [3]: 97±0.9%
NO percent of area reduction [4]: 62±5%
NO percent of area reduction ([5]; with CO2): 56±7%
NO percent of area reduction ([5]; without CO2): 70±3%
CO2 peak area difference [6]: 7±2%
